# Results reported in ChEMBL document CHEMBL3885881, “DrugMatrix”.
# Species: Rattus norvegicus
# Test: DrugMatrix - Regimen: Daily Repeat
# Assay type: toxicity, organism-based, Sprague-Dawley
# Design: regimen Daily Repeat, gender Male, age 6-8 weeks
# Conditions: in vivo, po, route oral GAVAGE, vehicle .5 % CMC; for ABSOLUTE BASOPHIL / ABSOLUTE EOSINOPHIL / ABSOLUTE LYMPHOCYTE / ABSOLUTE MONOCYTE / ABSOLUTE SEGMENTED NEUTROPHIL / BASOPHIL / EOSINOPHIL / ERYTHROCYTE COUNT / HEMATOCRIT / HEMOGLOBIN / LEUKOCYTE COUNT / LYMPHOCYTE / MEAN CORPUSCULAR HEMOGLOBIN / MEAN CORPUSCULAR HEMOGLOBIN CONCENTRATION / MEAN CORPUSCULAR VOLUME / MONOCYTE / NEUTROPHIL / NUCLEATED RED BLOOD CELLS / PLATELET COUNT: tissue Blood; for ALANINE AMINOTRANSFERASE / ALBUMIN / ALKALINE PHOSPHATASE / ASPARTATE AMINOTRANSFERASE / BLOOD UREA NITROGEN / CARBON DIOXIDE / CHLORIDE / CHOLESTEROL / CREATINE PHOSPHOKINASE / CREATININE / GLUCOSE / LACTATE DEHYDROGENASE / LIPASE / PHOSPHORUS / POTASSIUM / SODIUM / TOTAL BILIRUBIN / TOTAL PROTEIN / URIC ACID: tissue Plasma
# [1] = 0 mg/kg, 72 h, dose level Control, time 3 day
# [2] = 0 mg/kg, 120 h, dose level Control, time 5 day
# [3] = 44 mg/kg, 72 h, dose level Low, time 3 day
smiles,measurement,setting,value
Brc1ccccc1 [BROMOBENZENE],ABSOLUTE BASOPHIL,[1],0 CELLS/uL
same,ABSOLUTE EOSINOPHIL,[1],15.17 CELLS/uL
same,ABSOLUTE LYMPHOCYTE,[1],10149.83 CELLS/uL
same,ABSOLUTE MONOCYTE,[1],193.33 CELLS/uL
same,ABSOLUTE SEGMENTED NEUTROPHIL,[1],1575 CELLS/uL
same,BASOPHIL,[1],0%
same,EOSINOPHIL,[1],0.17%
same,ERYTHROCYTE COUNT,[1],5.53 x10E6/uL
same,HEMATOCRIT,[1],34.7%
same,HEMOGLOBIN,[1],12.78 G/DL
same,LEUKOCYTE COUNT,[1],11.93 x10E3/uL
same,LYMPHOCYTE,[1],85.5%
same,MEAN CORPUSCULAR HEMOGLOBIN,[1],23.15 pg
same,MEAN CORPUSCULAR HEMOGLOBIN CONCENTRATION,[1],36.9 G/DL
same,MEAN CORPUSCULAR VOLUME,[1],62.82 fL
same,MONOCYTE,[1],1.5%
same,NEUTROPHIL,[1],12.83%
same,NUCLEATED RED BLOOD CELLS,[1],0.5 /100WBC
same,PLATELET COUNT,[1],994.17 x10E3/uL
same,ALANINE AMINOTRANSFERASE,[1],48.17 u/L
same,ALBUMIN,[1],4.37 G/DL
same,ALKALINE PHOSPHATASE,[1],436.5 u/L
same,ASPARTATE AMINOTRANSFERASE,[1],83.17 u/L
same,BLOOD UREA NITROGEN,[1],14.67 mg/dL
same,CARBON DIOXIDE,[1],30.83 mmol/L
same,CHLORIDE,[1],99.17 MEQ/L
same,CHOLESTEROL,[1],86.33 mg/dL
same,CREATINE PHOSPHOKINASE,[1],243.33 u/L
same,CREATININE,[1],0.25 mg/dL
same,GLUCOSE,[1],158 mg/dL
same,LACTATE DEHYDROGENASE,[1],262.33 u/L
same,LIPASE,[1],11 u/L
same,PHOSPHORUS,[1],12.07 mg/dL
same,POTASSIUM,[1],6.52 MEQ/L
same,SODIUM,[1],142.45 MEQ/L
same,TOTAL BILIRUBIN,[1],0.17 mg/dL
same,TOTAL PROTEIN,[1],6.25 G/DL
same,URIC ACID,[1],1.42 mg/dL
same,ABSOLUTE BASOPHIL,[2],0 CELLS/uL
same,ABSOLUTE EOSINOPHIL,[2],0 CELLS/uL
same,ABSOLUTE LYMPHOCYTE,[2],10076.67 CELLS/uL
same,ABSOLUTE MONOCYTE,[2],124 CELLS/uL
same,ABSOLUTE SEGMENTED NEUTROPHIL,[2],966 CELLS/uL
same,BASOPHIL,[2],0%
same,EOSINOPHIL,[2],0%
same,ERYTHROCYTE COUNT,[2],5.57 x10E6/uL
same,HEMATOCRIT,[2],33.37%
same,HEMOGLOBIN,[2],12.73 G/DL
same,LEUKOCYTE COUNT,[2],11.17 x10E3/uL
same,LYMPHOCYTE,[2],90.33%
same,MEAN CORPUSCULAR HEMOGLOBIN,[2],22.9 pg
same,MEAN CORPUSCULAR HEMOGLOBIN CONCENTRATION,[2],38.18 G/DL
same,MEAN CORPUSCULAR VOLUME,[2],59.97 fL
same,MONOCYTE,[2],1%
same,NEUTROPHIL,[2],8.67%
same,NUCLEATED RED BLOOD CELLS,[2],0 /100WBC
same,PLATELET COUNT,[2],1078 x10E3/uL
same,ALANINE AMINOTRANSFERASE,[2],37.17 u/L
same,ALBUMIN,[2],4.2 G/DL
same,ALKALINE PHOSPHATASE,[2],322.17 u/L
same,ASPARTATE AMINOTRANSFERASE,[2],67.67 u/L
same,BLOOD UREA NITROGEN,[2],14 mg/dL
same,CARBON DIOXIDE,[2],27.67 mmol/L
same,CHLORIDE,[2],102.17 MEQ/L
same,CHOLESTEROL,[2],67.67 mg/dL
same,CREATINE PHOSPHOKINASE,[2],171.83 u/L
same,CREATININE,[2],0.27 mg/dL
same,GLUCOSE,[2],172 mg/dL
same,LACTATE DEHYDROGENASE,[2],85.33 u/L
same,LIPASE,[2],8.67 u/L
same,PHOSPHORUS,[2],12 mg/dL
same,POTASSIUM,[2],6.09 MEQ/L
same,SODIUM,[2],144.82 MEQ/L
same,TOTAL BILIRUBIN,[2],0.13 mg/dL
same,TOTAL PROTEIN,[2],6.07 G/DL
same,URIC ACID,[2],2.13 mg/dL
same,ABSOLUTE BASOPHIL,[3],0 CELLS/uL
same,ABSOLUTE EOSINOPHIL,[3],0 CELLS/uL
same,ABSOLUTE LYMPHOCYTE,[3],8803 CELLS/uL
same,ABSOLUTE MONOCYTE,[3],197 CELLS/uL
same,ABSOLUTE SEGMENTED NEUTROPHIL,[3],1233.33 CELLS/uL
same,BASOPHIL,[3],0%
same,EOSINOPHIL,[3],0%
same,ERYTHROCYTE COUNT,[3],5.29 x10E6/uL
same,HEMATOCRIT,[3],32.6%
same,HEMOGLOBIN,[3],12.17 G/DL
same,LEUKOCYTE COUNT,[3],10.23 x10E3/uL
same,LYMPHOCYTE,[3],86.33%
same,MEAN CORPUSCULAR HEMOGLOBIN,[3],23 pg
same,MEAN CORPUSCULAR HEMOGLOBIN CONCENTRATION,[3],37.3 G/DL
same,MEAN CORPUSCULAR VOLUME,[3],61.67 fL
same,MONOCYTE,[3],2%
same,NEUTROPHIL,[3],11.67%
same,NUCLEATED RED BLOOD CELLS,[3],0.33 /100WBC
same,PLATELET COUNT,[3],1006 x10E3/uL
same,ALANINE AMINOTRANSFERASE,[3],42.67 u/L
same,ALBUMIN,[3],4.37 G/DL
same,ALKALINE PHOSPHATASE,[3],351 u/L
same,ASPARTATE AMINOTRANSFERASE,[3],74 u/L
same,BLOOD UREA NITROGEN,[3],14 mg/dL
same,CARBON DIOXIDE,[3],30 mmol/L
same,CHLORIDE,[3],100.67 MEQ/L
same,CHOLESTEROL,[3],85 mg/dL
same,CREATINE PHOSPHOKINASE,[3],192.67 u/L
same,CREATININE,[3],0.21 mg/dL
same,GLUCOSE,[3],153.33 mg/dL
same,LACTATE DEHYDROGENASE,[3],151.33 u/L
same,LIPASE,[3],11.33 u/L
same,PHOSPHORUS,[3],12.27 mg/dL
same,POTASSIUM,[3],6.3 MEQ/L
same,SODIUM,[3],144.5 MEQ/L
same,TOTAL BILIRUBIN,[3],0.1 mg/dL
same,TOTAL PROTEIN,[3],6.13 G/DL
same,URIC ACID,[3],1.47 mg/dL
